{"source": "patent US20100183597A1", "about": "“DRAK2 EXPRESSION IS ASSOCIATED WITH DIABETES” (priority 2007, published 2010)", "key": {"Drak2": {"system": "Drak2", "assay": "Drak2 protein levels in siRNA-transfected NIT-1 insulinoma cells by flow cytometry", "assay_type": "cell-based, mouse", "conditions": "NIT-1 cells; for Drak2 protein upregulation stimulated by FFA: siRNA transfected, cultured 24 h with FFA, intracellular Drak2 by flow cytometry (FIG. 2A); for Drak2 protein upregulation stimulated by cytokines: 24 h (FIG. 10B)", "source_text": "(§1) Drak2 Tg and WT islets were digested with 0.05% trypsin-EDTA to obtain single cell suspensions. The cells were fixed with 4% paraformaldehyde and permeabilized with 0.2% Triton X-100. They were stained with rabbit anti-Drak2 Ab (Abgent, San Diego, Calif.; 1:50 dilution) and anti-insulin mAb (Sigma, St. Louis, Mo.; 1:500 dilution). Subsequently, they were stained with FITC-conjugated sheep anti-rabbit antibody (Chemicon, Temecula, Calif.), and PE-conjugated goat anti-mouse antibody (Jackson Immunoresearch, West Grove, Pa.), and analyzed by 2-color flow cytometry. Dispersed islet cells or small interfering RNA (siRNA)-transfected NIT-1 cells were also analyzed for apoptosis by flow cytometry using FITC-annexin V staining (Murakami et al., 2004).\n(§2) NIT-1 cells, derived from mouse insulinoma, were transfected with siRNA using Lipofectamine 2000 (Invitrogen, Burlington, Ontario) according to the manufacturer's instructions. For Drak2 siRNA, the oligonucleotide RNA sequences were CAUCCCUGAAGAUGGCAGCtt and GCUGCCAUCUUCAGGGAUGtt. The control was the scrambled sequence of said siRNA with following sequences: 5′CCCUAAGUGUAGGACGCACtt and 3′GUGCGUCCUACACUUAGGGtt. Single stranded RNA pairs were annealed by being incubated for 1 min at 900 C, and then cooled down to room temperature over 45 min. The final concentration of double-stranded siRNA was 20 μM for transfection.\n(§3) Dispersed islet cells were fixed with 4% paraformaldehyde and permeabilized with 0.2% Triton X-100. For Drak2 and insulin detection, the cells were stained as described for confocal microscopy, and analyzed by 2-color flow cytometry. Dispersed islet cells or small interfering RNA (siRNA)-transfected NIT-1 cells were also analyzed for apoptosis by flow cytometry with FITC-annexin V staining (Murakami et al., 2004)).\n(§4) NIT-1 cells, derived from mouse insulinoma, were transfected with siRNA using Lipofectamine 2000 (Invitrogen, Burlington, Ontario) according to the manufacturer's instructions. Two siRNAs specific for Drak2 were employed. For Drak2 siRNA #1162, the oligonucleotide RNA sequences were CAUCCCUGAAGAUGGCAGCtt and GCUGCCAUCUUCAGGGAUGtt. For Drak2 siRNA #592, the oligonucleotide RNA sequences were UAACAUUGUUCACCUUGAUtt and AUCAAGGUGAACAAUGUUAtt. The control siRNA was the scrambled sequence of siRNA #1162 with the following sequences: 5′CCCUAAGUGUAGGACGCACtt and 3′GUGCGUCCUACACUUAGGGtt. Single-stranded RNA pairs were annealed by incubation for 1 min at 900 C, and then cooled down to room temperature over 45 min. The final concentration of double-stranded siRNA was 10 nM for transfection."}, "NIT-1 cells": {"system": "NIT-1 cells", "assay": "Apoptosis of NIT-1 cells by annexin V staining and flow cytometry", "assay_type": "cell-based, mouse", "conditions": "for FFA-induced apoptosis (annexin V): cultured 24 h with FFA (FIG. 2B)", "source_text": "as §1, §2, §3, §4\nNIT-1 cells were treated with IFN-g+IL-1b for 72 hours, with or without […] rapamycin. Drak2 siRNA were transfected to some cells at 24 hour, the apoptosis of cells were measured with Annexin-v staining."}, "p70S6 kinase": {"system": "p70S6 kinase", "assay": "p70S6 kinase phosphorylation in NIT-1 cell lysates by immunoblotting", "assay_type": "cell-based, mouse", "conditions": "NIT-1 cells, IFN-γ plus IL-1β or TNF-α plus IL-1β, siRNA transfected after 24 h, immunoblot after additional 24 h (FIG. 15B, 15C)", "procedure": "NIT-1 cells were transiently transfected with pCEP4-HA-Drak2 or empty vector pCEP4-HA. After 48 h, the cells were lysed and resolved in 10% SDS-PAGE (60 μg/lane) followed by immunoblotting. For HA-Drak2 expression, membrane was blotted with mouse anti-HA mAb (Santa Cruz, Santa Cruz, Calif.; 1:1000 dilution) followed by horse radish peroxidase (HRP)-conjugated sheep anti-mouse IgG (GE Health; 1:2000 dilution). To assess p70S6 kinase phosphorylation, the membrane was blotted with mouse anti-phospho-p70S6 kinase (Thr389) Ab (Cell Signaling, Danvers, Mass.; 1:1000 dilution) followed by HRP-conjugated sheep anti-mouse IgG (GE Health; 1:2000 dilution). The membrane was also blotted with rabbit anti-p70S6 kinase Ab (Cell Signaling, Danvers, Mass.; 1:1000 dilution) followed by HRP-conjugated donkey anti-rabbit IgG to show similar total p70S6 kinase protein. In some experiments, NIT-1 cells were stimulated with IFN-γ (1000 U/ml) plus IL-1β (0.5 ng/ml), or TNF-α (200 ng/ml) plus IL-1β (0.5 ng/ml). Twenty four hours later, they were transfected with two different Drak2 siRNAs (#592 and #1162), or with a control siRNA. After additional 24 hour, phospho-p70S6 kinase and total p70S6 kinase in the cell lysates were detected by immunoblotting as described above."}, "human islets": {"system": "human islets", "assay": "Inflammatory cytokine-induced apoptosis of human islets, annexin V flow cytometry", "assay_type": "cell-based", "conditions": "TNF-a, IFN-g and IL1-b, 72 h (FIG. 19)", "procedure": "FIG. 19—Drak2 siRNA (designed based on the mouse Drak2 sequence) effectively protects human islets from inflammatory cytokine-induced apoptosis. Human islets were treated with cytokines (IFN-γ (1000 U/ml), IL-1β (0.5 ng/ml), TNF-α (200 ng/ml), 24 h later, they were transfected with a combination of 2 Drak2 siRNA (#592 and #1162, 10 nM each). At 72 h, the islets were harvested, dispersed and tested for annexin V expression by flow cytometry. The percentage of apoptotic cells (annexin V positive) is shown.\nas §3"}, "[1]": {"conditions": "IFN-γ plus IL-1β or TNF-α plus IL-1β"}}, "data": [{"substance": "#592: Drak2 siRNA; oligonucleotide RNA sequences UAACAUUGUUCACCUUGAUtt and AUCAAGGUGAACAAUGUUAtt (SEQ ID Nos:7 and 8) (chain 1 UAACAUUGUUCACCUUGAUTT; chain 2 AUCAAGGUGAACAAUGUUATT; chemistry not fully specified)", "values": [{"measurement": "Drak2 protein upregulation stimulated by FFA", "setting": "Drak2", "value": "inhibited Drak2 protein upregulation"}, {"measurement": "FFA-induced apoptosis (annexin V)", "setting": "NIT-1 cells; siRNA transfected", "value": "prevented FFA-induced apoptosis"}, {"measurement": "cytokine-induced p70S6 kinase phosphorylation (phospho versus total p70S6 kinase)", "setting": "p70S6 kinase", "value": "inhibited p70S6 kinase phosphorylation"}]}, {"substance": "#1162: Drak2 siRNA; oligonucleotide RNA sequences CAUCCCUGAAGAUGGCAGCtt and GCUGCCAUCUUCAGGGAUGtt (SEQ ID Nos: 5 and 6)", "values": [{"measurement": "Drak2 protein upregulation stimulated by cytokines", "setting": "Drak2; [1]", "value": "prevented Drak2 protein upregulation"}, {"measurement": "Drak2 protein upregulation stimulated by FFA", "setting": "Drak2", "value": "inhibited Drak2 protein upregulation"}, {"measurement": "FFA-induced apoptosis (annexin V)", "setting": "NIT-1 cells; siRNA transfected", "value": "prevented FFA-induced apoptosis"}, {"measurement": "cytokine-induced p70S6 kinase phosphorylation (phospho versus total p70S6 kinase)", "setting": "p70S6 kinase", "value": "inhibited p70S6 kinase phosphorylation"}]}, {"substance": "Drak2 siRNA: Drak2 siRNA without number; Example 4 sequences CAUCCCUGAAGAUGGCAGCtt and GCUGCCAUCUUCAGGGAUGtt, the same as #1162 (GCUGCCAUCUUCAGGGAUGTT; RNA strands with 3' tt overhangs, overhang chemistry not given here, further chemistry not given here)", "values": [{"measurement": "apoptosis induced by IFN-γ+IL-1β (annexin V)", "setting": "NIT-1 cells; 72 h, rapamycin 250 nM, Drak2 siRNA transfected at 24 h, alone or combined (FIG. 18)", "value": "reduce apoptosis"}, {"measurement": "cytokine-induced apoptosis (annexin V)", "setting": "NIT-1 cells; siRNA transfected, IFN-γ plus IL-1β or TNF-α plus IL-1β, 24 h (FIG. 10C)", "value": "dampened"}]}, {"substance": "control siRNA: scrambled sequence of siRNA #1162: 5′CCCUAAGUGUAGGACGCACtt and 3′GUGCGUCCUACACUUAGGGtt (SEQ ID Nos: 9 and 10) (chain 1 CCCUAAGUGUAGGACGCACTT; chain 2 GUGCGUCCUACACUUAGGGTT; RNA strands with 3' tt overhangs, overhang chemistry not given here, further chemistry not given here) [reference compound]", "values": [{"measurement": "Drak2 protein upregulation stimulated by cytokines", "setting": "Drak2; [1]", "value": "no effect"}, {"measurement": "cytokine-induced Drak2 protein expression", "setting": "Drak2; IFN-γ plus IL-1β or TNF-α plus IL-1β, siRNA transfected after 24 h, assayed at 48 h (FIG. 15A)", "value": "no effect"}, {"measurement": "Drak2 protein upregulation stimulated by FFA", "setting": "Drak2", "value": "no effect"}, {"measurement": "cytokine-induced p70S6 kinase phosphorylation (phospho versus total p70S6 kinase)", "setting": "p70S6 kinase", "value": "no effect"}, {"measurement": "effect on cytokine-induced apoptosis of human islets", "setting": "human islets", "value": "no effect"}]}]}
